Results on four compounds are retold here after ChEMBL document CHEMBL1201861, “Genomics of Drug Sensitity in Cancer screening data, Wellcome Trust Sanger Institute”.

Bounds are passed on as bounds.

In one test the test system is WSU-NHL. The experiment in a line: cells. It counts as functional, cell-based. The settings on record: Homo sapiens.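 Note: growth inhibition of human WSU-NHL cells, read out with a cell viability assay.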
For a further test, the system named is D-336MG. The experiment in a line: cells. It counts as functional, cell-based. The note with it: Homo sapiens.
In the next test the test system is NCI-H716. Description: cells. The class given is functional, cell-based. The settings on record: Homo sapiens.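 Note: growth inhibition of human NCI-H716 cells, measured by a cell viability assay.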
The next test relates to KARPAS-422. Description: cells. The class given is functional, cell-based. The settings on record: Homo sapiens.
Another test concerns NCI-H889. Description: cells. The settings on record: Homo sapiens. It counts as functional, cell-based.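 Note: cell growth inhibition of the cell line, read out with a viability assay.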
The subject of the next test is LB647-SCLC. Description: cells. The class given is functional, cell-based. The note with it: Homo sapiens.
The test system of a further test is MDA-MB-134-VI. Description: cells. The class given is functional, cell-based. The settings on record: Homo sapiens.
The subject of a further test is D-247MG. Description: cells. The note with it: Homo sapiens. It counts as functional, cell-based.
A further test relates to TUR. The experiment in a line: cells. The class given is functional, cell-based. The note with it: Homo sapiens.
The next test concerns GDM-1. The experiment in a line: cells. The class given is functional, cell-based. The note with it: Homo sapiens.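 Note: cell viability readout used to measure growth inhibition of human GDM-1 cells.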
The next test relates to NB1. Description: cells. It counts as functional, cell-based. The note with it: Homo sapiens.
For another test, the system named is NCI-H1694. The experiment in a line: cells. It counts as functional, cell-based. The note with it: Homo sapiens.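 Note: cell viability assay measuring inhibition of growth in human NCI-H1694 cells.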
The next test concerns HCC1599. Description: cells. It counts as functional, cell-based. The note with it: Homo sapiens.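 Note: growth inhibition of HCC1599 cells, read out in a cell viability assay.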
The test system of the next test is CPC-N. Description: cells. The class given is functional, cell-based. The settings on record: Homo sapiens.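 Note: growth inhibition of CPC-N cells, with a cell viability assay as the readout.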
A further test relates to COR-L279. The experiment in a line: SANGER: Inhibition of human COR-L279 cell growth in a cell viability assay. The class given is functional, cell-based.
The next test has as its system ST486. Description: SANGER: Inhibition of human ST486 cell growth in a cell viability assay. It counts as functional, cell-based.
The subject of a further test is RPMI-6666. Description: cells. The class given is functional, cell-based. The note with it: Homo sapiens.
The next test has as its system MKN-1. The experiment in a line: cells. The note with it: Homo sapiens. It counts as functional, cell-based.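 Note: growth inhibition of human MKN1 cells, read out by a cell viability measurement.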
The test system of the next test is SN12C. Description: cells. It counts as functional, cell-based. The settings on record: Homo sapiens.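 Note: growth inhibition of human SN12C cells, measured by a cell viability assay.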
A further test concerns KOSC-2. Description: cells. The class given is functional, cell-based. The note with it: Homo sapiens.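 Note: growth inhibition of KOSC-2 cells, read out by a cell viability assay.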
The test system of another test is CAL-120. Description: cells. The note with it: Homo sapiens. It counts as functional, cell-based.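 Note: cell growth inhibition, read out as cell viability.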
In a further test the test system is NCI-H2452. Description: cells. The class given is functional, cell-based. The note with it: Homo sapiens.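 Note: growth inhibition of NCI-H2452 cells, read out with a cell viability assay.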
The subject of the next test is D-392MG. The experiment in a line: cells. The class given is functional, cell-based. The note with it: Homo sapiens.
A further test concerns G-402. Description: cells. The class given is functional, cell-based. The settings on record: Homo sapiens.
A further test has as its system A-427. Description: cells. The note with it: Homo sapiens. The class given is functional, cell-based.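 Note: growth inhibition of human A-427 cells, read out by a cell viability assay.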
In another test the test system is OVCAR-8. The experiment in a line: cells. It counts as functional, cell-based. The note with it: Homo sapiens.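 Note: growth inhibition of human OVCAR-8 cells, read out by a cell viability assay.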
A further test concerns GP5d. Description: cells. It counts as functional, cell-based. The note with it: Homo sapiens.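 Note: growth inhibition of human GP5d cells, read out with a cell viability assay.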
Another test relates to KYSE-140. Description: cells. The class given is functional, cell-based. The settings on record: Homo sapiens.
The subject of the next test is CAKI-1. The experiment in a line: cells. The class given is functional, cell-based. The settings on record: Homo sapiens.
The test system of a further test is SW13. The experiment in a line: cells. The class given is functional, cell-based. The settings on record: Homo sapiens.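 Note: IC50 is inhibition of SW13 cell growth, read out with a cell viability assay.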
Another test relates to OE33. Description: cells. The class given is functional, cell-based. The note with it: Homo sapiens.
The subject of a further test is NCI-H1693. The experiment in a line: cells. It counts as functional, cell-based. The settings on record: Homo sapiens.
The subject of the next test is PFSK-1. The experiment in a line: cells. It counts as functional, cell-based. The settings on record: Homo sapiens.
The test system of a further test is CAL-51. Description: cells. It counts as functional, cell-based. The settings on record: Homo sapiens.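 Note: human CAL-51 cell line, growth inhibition read out via a cell viability assay.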
The test system of a further test is LoVo. The experiment in a line: cells. The note with it: Homo sapiens. It counts as functional, cell-based.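 Note: growth inhibition of human LoVo cells, read out with a cell viability assay.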
The subject of another test is SW1088. Description: cells. It counts as functional, cell-based. The note with it: Homo sapiens.
The subject of a further test is COLO-680N. The experiment in a line: cells. The class given is functional, cell-based. The note with it: Homo sapiens.
For another test, the system named is BHY. Description: cells. The class given is functional, cell-based. The note with it: Homo sapiens.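 Note: cell growth inhibition read out by a viability assay.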
The test system of the next test is COLO-679. The experiment in a line: cells. It counts as functional, cell-based. The settings on record: Homo sapiens.
In another test the test system is TCC-SUP. The experiment in a line: cells. The class given is functional, cell-based. The settings on record: Homo sapiens.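 Note: growth inhibition of TCC-SUP cells, read out with a cell viability assay.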
Another test concerns CAL-33. Description: cells. It counts as functional, cell-based. The settings on record: Homo sapiens.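 Note: growth inhibition of CAL-33 cells, read out with a cell viability assay.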
The subject of the next test is PANC-03-27. The experiment in a line: cells. The class given is functional, cell-based. The note with it: Homo sapiens.
The next test deals with UMUC3. The experiment in a line: cells. The note with it: Homo sapiens. It counts as functional, cell-based.
Another test has as its system HuCCT-1. The experiment in a line: cells. The settings on record: Homo sapiens. The class given is functional, cell-based, HuCCT1.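 Note: growth inhibition of HuCCT-1 cells, read out by a cell viability assay.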
Another test concerns 769-P. The experiment in a line: cells. The class given is functional, cell-based. The settings on record: Homo sapiens.
Another test relates to CAL-27. The experiment in a line: cells. It counts as functional, cell-based. The note with it: Homo sapiens.
The next test concerns CAL-85-1. Description: cells. The class given is functional, cell-based. The settings on record: Homo sapiens.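 Note: growth inhibition of human CAL-85-1 cells, read out with a cell viability assay.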
For the next test, the system named is NCI-H1703. The experiment in a line: cells. The class given is functional, cell-based. The settings on record: Homo sapiens.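 Note: growth inhibition of NCI-H1703 cells, read out via a cell viability assay.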
The next test has as its system NCI-H2087. Description: cells. It counts as functional, cell-based. The settings on record: Homo sapiens.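 Note: growth inhibition determined with a cell viability readout.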
The next test has as its system SK-N-AS. The experiment in a line: cells. It counts as functional, cell-based. The settings on record: Homo sapiens.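 Note: growth inhibition of human SK-N-AS cells, measured with a cell viability assay.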

Description for 769-P: SANGER: Inhibition of human 769-P cell growth in a cell viability assay.
Description for A-427: SANGER: Inhibition of human A427 cell growth in a cell viability assay.
Description for BHY: SANGER: Inhibition of human BHY cell growth in a cell viability assay.
Description for CAKI-1: SANGER: Inhibition of human CAKI-1 cell growth in a cell viability assay.
Description for CAL-120: SANGER: Inhibition of human CAL-120 cell growth in a cell viability assay.
Description for CAL-27: SANGER: Inhibition of human CAL-27 cell growth in a cell viability assay.
Description for CAL-33: SANGER: Inhibition of human CAL-33 cell growth in a cell viability assay.
Description for CAL-51: SANGER: Inhibition of human CAL-51 cell growth in a cell viability assay.
Description for CAL-85-1: SANGER: Inhibition of human CAL-85-1 cell growth in a cell viability assay.
Description for COLO-679: SANGER: Inhibition of human COLO-679 cell growth in a cell viability assay.
Description for COLO-680N: SANGER: Inhibition of human COLO-680N cell growth in a cell viability assay.
Description for CPC-N: SANGER: Inhibition of human CPC-N cell growth in a cell viability assay.
Description for D-247MG: SANGER: Inhibition of human D-247MG cell growth in a cell viability assay.
Description for D-336MG: SANGER: Inhibition of human D-336MG cell growth in a cell viability assay.
Description for G-402: SANGER: Inhibition of human G-402 cell growth in a cell viability assay.
Description for GDM-1: SANGER: Inhibition of human GDM-1 cell growth in a cell viability assay.
Description for GP5d: SANGER: Inhibition of human GP5d cell growth in a cell viability assay.
Description for HCC1599: SANGER: Inhibition of human HCC1599 cell growth in a cell viability assay.
Description for HuCCT-1: SANGER: Inhibition of human HuCCT1 cell growth in a cell viability assay.
Description for KARPAS-422: SANGER: Inhibition of human KARPAS-422 cell growth in a cell viability assay.
Description for KOSC-2: SANGER: Inhibition of human KOSC-2 cell growth in a cell viability assay.
Description for KYSE-140: SANGER: Inhibition of human KYSE-140 cell growth in a cell viability assay.
Description for LB647-SCLC: SANGER: Inhibition of human LB647-SCLC cell growth in a cell viability assay.
Description for LoVo: SANGER: Inhibition of human LoVo cell growth in a cell viability assay.
Description for MDA-MB-134-VI: SANGER: Inhibition of human MDA-MB-134-VI cell growth in a cell viability assay.
Description for MKN-1: SANGER: Inhibition of human MKN1 cell growth in a cell viability assay.
Description for NB1: SANGER: Inhibition of human NB1 cell growth in a cell viability assay.
Description for NCI-H1693: SANGER: Inhibition of human NCI-H1693 cell growth in a cell viability assay.
Description for NCI-H1694: SANGER: Inhibition of human NCI-H1694 cell growth in a cell viability assay.
Description for NCI-H1703: SANGER: Inhibition of human NCI-H1703 cell growth in a cell viability assay.
Description for NCI-H2087: SANGER: Inhibition of human NCI-H2087 cell growth in a cell viability assay.
Description for NCI-H2452: SANGER: Inhibition of human NCI-H2452 cell growth in a cell viability assay.
Description for NCI-H716: SANGER: Inhibition of human NCI-H716 cell growth in a cell viability assay.
Description for NCI-H889: SANGER: Inhibition of human NCI-H889 cell growth in a cell viability assay.
Description for OE33: SANGER: Inhibition of human OE33 cell growth in a cell viability assay.
Description for OVCAR-8: SANGER: Inhibition of human OVCAR-8 cell growth in a cell viability assay.
Description for PANC-03-27: SANGER: Inhibition of human PANC-03-27 cell growth in a cell viability assay.
Description for PFSK-1: SANGER: Inhibition of human PFSK-1 cell growth in a cell viability assay.
Description for RPMI-6666: SANGER: Inhibition of human RPMI-6666 cell growth in a cell viability assay.
Description for SK-N-AS: SANGER: Inhibition of human SK-N-AS cell growth in a cell viability assay.
Description for SN12C: SANGER: Inhibition of human SN12C cell growth in a cell viability assay.
Description for SW1088: SANGER: Inhibition of human SW1088 cell growth in a cell viability assay.
Description for SW13: SANGER: Inhibition of human SW13 cell growth in a cell viability assay.
Description for TCC-SUP: SANGER: Inhibition of human TCCSUP cell growth in a cell viability assay.
Description for TUR: SANGER: Inhibition of human TUR cell growth in a cell viability assay.
Description for UMUC3: SANGER: Inhibition of human UM-UC-3 cell growth in a cell viability assay.
Description for WSU-NHL: SANGER: Inhibition of human WSU-NHL cell growth in a cell viability assay.

Broadly, the IC50 is the concentration that inhibits the measured activity by half. In the case of `CCNc1cc(N[C@H]2CC[C@@H](O)CC2)nc(Nc2ccc3c(ccn3Cc3ccccc3)c2)n1`, the half-inhibitory concentration (IC50) in the test on WSU-NHL, in the test on D-336MG, in the test with NCI-H716, in the test with KARPAS-422, in the test on NCI-H889 and in the test on LB647-SCLC was above 5.12 µM in each case. Further, the half-inhibitory concentration (IC50) in the test with MDA-MB-134-VI, in the test on D-247MG, with TUR, with GDM-1, in the test with NB1 and in the test with NCI-H1694 was above 5.12 µM in each case. The 50% inhibitory concentration (IC50) in the test with HCC1599, in the test with CPC-N, with COR-L279, with ST486 and in the test on RPMI-6666 was above 5.12 µM in each case.

For the compound `COc1cc(C)c(Sc2cnc(NC(=O)c3ccc(CNC(C)C(C)(C)C)cc3)s2)cc1C(=O)N1CCN(C(C)=O)CC1` (stereo unspecified), the 50% inhibitory concentration (IC50) with WSU-NHL was above 10.2 µM; with D-336MG, 6.78 µM; in the test with NCI-H716, above 10.2 µM; with KARPAS-422 it was above 10.2 µM; with NCI-H889 it was above 10.2 µM; in the test on LB647-SCLC, above 10.2 µM. The IC50 with MDA-MB-134-VI, in the test on D-247MG, in the test with TUR, in the test on GDM-1, in the test on NB1 and with NCI-H1694 was above 10.2 µM throughout. Also, the 50% inhibitory concentration (IC50) in the test on HCC1599, with CPC-N, in the test with COR-L279, in the test on ST486 and in the test on RPMI-6666 was above 10.2 µM in each case.

`Cc1nc(Nc2ncc(C(=O)Nc3c(C)cccc3Cl)s2)cc(N2CCN(CCO)CC2)n1` [DASATINIB]: the IC50 in the test with WSU-NHL is above 1.28 µM; with D-336MG, 0.0063 µM; in the test on NCI-H716, above 1.28 µM; in the test on KARPAS-422, 0.34 µM; in the test with NCI-H889, above 1.28 µM; in the test on LB647-SCLC, above 1.28 µM. Moreover, the IC50 in the test on MDA-MB-134-VI, in the test on D-247MG, in the test with TUR, in the test with GDM-1, with NB1 and with NCI-H1694 was above 1.28 µM in each case. In addition, the concentration for half-maximal inhibition (IC50) in the test with HCC1599, in the test on CPC-N, in the test on COR-L279, in the test with ST486 and in the test on RPMI-6666 was above 1.28 µM in each case.

With `CC[C@@]1(O)C(=O)OCc2c1cc1n(c2=O)Cc2cc3ccccc3nc2-1` [CAMPTOTHECIN], the IC50 in the test with MKN-1 was 0.0379 µM; in the test with SN12C it was 0.0045 µM; with KOSC-2, 0.00439 µM; in the test on D-336MG it was 0.0052 µM; in the test with CAL-120 it was above 0.1 µM; in the test on NCI-H2452, 0.0909 µM. For the same compound, the IC50 with D-392MG is 0.0177 µM; with G-402, 0.0245 µM; in the test on A-427, 0.00425 µM; in the test with OVCAR-8 it was 0.00727 µM; in the test with GP5d, 0.0125 µM; in the test with KYSE-140, 0.0697 µM. For the same compound, the IC50 in the test with CAKI-1 came out at 0.00535 µM; in the test with SW13, 0.00299 µM; in the test on OE33, 0.0256 µM; with NCI-H1693 it was 0.0267 µM; in the test with PFSK-1 it was 0.026 µM; with D-247MG it was 0.0395 µM. Further, the IC50 with CAL-51 is 0.0297 µM; in the test on LoVo, 0.0149 µM; with SW1088 it was 0.0278 µM; with COLO-680N, 0.0724 µM; in the test on BHY, 0.00531 µM; in the test on COLO-679 it was above 0.1 µM. Further, the IC50 in the test on TCC-SUP amounted to 0.039 µM; in the test with CAL-33 it was 0.006 µM; with PANC-03-27 it was 0.0071 µM; in the test on UMUC3, 0.00309 µM; in the test on HuCCT-1, 0.0732 µM; with 769-P it was 0.0253 µM. Moreover, the concentration for half-maximal inhibition (IC50) in the test with CAL-27 is 0.00202 µM; in the test with CAL-85-1 it was above 0.1 µM; with NCI-H1703 it was 0.00651 µM; with NCI-H2087, 0.00507 µM; in the test on SK-N-AS, 0.00538 µM.
